Experimental findings from patent publication US3956314A, “Derivatives of 2-pyrrolidinone” (U.C.B., Societe Anonyme, priority 1970, dated 1976) are described below.

A short description of series [1]: toxicity determined in rat by intraperitoneal administration (LD50). The conditions noted are these: in vivo, ip. The text has this: Moreover, the compounds of the invention have low toxicity.
Series [2] deals with Wistar rats. The experiment in a line: anxiolytic action: shuttle box conditioning test, painful electric shocks, second sequence. The format is in vivo. The method, then:
Wistar rats (weighing 100 g. ± 20 g.) are first permitted to become accustomed, during 10 minutes, to conditioning cages of the shuttle box type, after which they are subjected to a first sequence of 20 painful electric shocks of 3 seconds on their paws repeated every 30 seconds. During this first sequence, the rats ran away before the end of the shock about 15 times out of 20 shocks.
On the other hand, if these same animals are subjected to a sequence of shocks 4 hours later, paradoxically, instead of improving their performance (as in the course of a normal training) a reduction in the number of evasions is found: the animals have become set and are less successful in running away before the end of the shocks. This behavior is attributed to an anxiety state induced by the experimental situation.
Intraperitoneal administration of an anxiolytic substance to the rats, half an hour before the second sequence is carried out, improves their performance (increase in the number of evasions before the end of the shock).
A group of rats, to which a substance to be tested is administered, is compared with a group of control rats, which has been injected with physiological serum under the same conditions. […]

`CC1C(=O)NCC1c1ccc(Cl)cc1` [Compound D, 4-p-chlorophenyl-3-methyl-2-pyrrolidinone (trans isomer)]: the LD50 in series [1] was 306 mg/kg.
On to `CNC1=Nc2ccc(Cl)cc2C(c2ccccc2)=[N+]([O-])C1` [S, 7-chloro-2-methylamino-5-phenyl-3H-1,4-benzodiazepine-4-oxide], for which the LD50 in series [1] (reference drug) turned out to be 240 mg/kg.
As for `O=C1NC[C@H](c2ccc(Cl)cc2)[C@@H]1c1ccccc1` (relative stereo) [E, 4-p-chlorophenyl-3-phenyl-2-pyrrolidinone (cis isomer)], in series [1], the median lethal dose (LD50) amounted to 320 mg/kg.
In the case of `O=C1CC(c2ccc(Cl)cc2)CN1` (centres unmarked) [T, 4-(para-chlorophenyl)-pyrrolidone-(2)], the “performance (in words)” value in series [2] (dose of 0.32 mmole/kg) is on record as “a decrease in the performance”. In addition, the “anxiolytic action (in words)” value in series [2] (rat shuttle box test) is listed as “practically no anxiolytic action”.
